The values below come from US9120774B2 (University of Kansas, priority 2009, dated 2015).

Structures are written as SMILES. Read-outs that look alike come from different tables or passages of the source.

Experiment [1] has as its system MCF-7 (estrogen receptor positive breast cancer cells). The experiment in a line: Anti-proliferation activity against MCF-7 cells (MTS/PMS). The class given is cell-based. The note with it: up to 100 μM. The essentials:
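Viability after 72 h compound treatment (1% DMSO final, 37° C., 5% CO2) measured by MTS/PMS; plating density 2000 cells/well with overnight attachment.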

For experiment [2], the system named is Hsp90, androgen receptor and AKT in LNCaP prostate cancer cells. The experiment in a line: Western blot of Hsp90 and client proteins (AR, AKT) in LNCaP cells. In kind it is cell-based. The note with it: 24 hours. The procedure: FIG. 3 (top panel) is a western blot analysis of prostate cancer LNCaP cells treated with KU-1/A4. The bottom panel is a western blot analysis of prostate cancer LAPC-4 cells incubated with KU-1/A4. Actin was used as a control in both assays. […] Western blot analysis of the effects of KU-1/A4 on Hsp90 client proteins in prostate cancer LNCaP cells. Cells were treated with varying concentrations of KU-1/A4 for 24 hours and probed for the androgen receptor (“AR”), protein kinase […] (“AKT”), Hsp90, and actin.
The steroid hormone receptors are also dependent upon the Hsp90 protein folding machinery for activation and hormone binding. To determine whether KU-1/A4 had similar effects on the androgen receptor, KU-1/A4 was tested in both a mutated androgen receptor-dependent prostate cancer cell line (LNCaP) and a wild type androgen receptor prostate cancer cell line (LAPC-4). More specifically, the prostate cancer cells were grown in RPMI with 10% fetal calf serum in a standard fashion. Once the cells had reached near confluence, they were treated with vehicle (DMSO) or varying concentrations of KU-1/A4 ranging from 10 nm to 100 μM for 24 hours. Cells were harvested and cell lysates prepared. […] More specifically, Western Blot analysis protein concentrations in serum samples were determined by the Pierce BCA protein assay kit according to the manufacturer's protocol. […]
(In general: A western blot detects proteins with antibodies after separation by electrophoresis.)

The test system of experiment [3] is primary cortical neurons exposed to Aβ25-35. Briefly: Protection against Aβ-induced toxicity in primary neurons (Live-Dead assay). In kind it is cell-based, rat. The procedure: In this example, the neuroprotective effects of KU-1/A4 were determined in primary neurons derived from embryonic rat brain exposed to Aβ (10 μM) in the presence or absence of the test compound for 48 hours. The percentage of surviving neurons was determined by labeling with the fluorescent dyes calcein-AM and propidium iodide as previously described. […] The numbers of calcein-labeled live cells and propidium iodide-labeled dead neurons in several fields were visualized via fluorescence microscopy and counted as described.
Briefly, about 10 to 16 brains were removed from fetuses delivered by cesarean section, and the cortices dissected out. The neurons were isolated and suspended in DMEM/F12 supplemented with 10% FBS and plated on sterile dishes or cover slips coated with 10 μg/ml poly-D-lysine and 5 μg/ml mouse laminin. After 24 hours, the serum-containing medium was removed, and neurons were maintained in Neurobasal medium (Gibco) with 2% B-27 supplements (Gibco). Cells were maintained in culture at 37° C. in 5% CO2 and 97% humidity for 7 to 8 eight days in vitro (DIV) before use. Neurons were exposed to 0.004% DMSO or the indicated concentrations of GA or KU-1/A4 for two hours before the addition of 10 μM Aβ25-35 for either 24 or 48 hours as indicated. Stock solutions of Aβ were prepared in sterile water at a concentration of 1.3 mM and stored at −20° C. Aliquots of the stock solutions were diluted to 1 mM in sterile 50 mM Tris-HCl, pH 7.4, and incubated at 37° C. for 24 hours to promote oligomerization of the peptides prior to treatment of the neurons. The effects of KU-1/A4, GA, Aβ, or the indicated combinations on neuronal viability were determined by monitoring cell survival using the Live-Dead assay as previously described. […] Digital images from 6 fields per dish were captured, and the number of viable (green) and dead (red) cells counted. All experiments were conducted with duplicate dishes from at least two neuronal preparations for each treatment, with about 1,000 cells analyzed/treatment condition. The data are expressed as the fraction of viable cells calculated from the total number of neurons counted under each treatment condition. The significance of differences between cultures exposed to various treatment conditions was determined using Student's t-test.

What is called EC50 is the concentration needed to bring the measured effect to its halfway point. Take `CO[C@@H]1[C@@H](O)[C@@H](O)[C@H](Oc2ccc3cc(NC(C)=O)c(=O)oc3c2)OC1(C)C` [KU-1/A4, N-(7-((2R,3R,4S,5R)-3,4-dihydroxy-5-methoxy-6,6-dimethyl-tetrahydro-2H-pyran-2-yloxy)-2-oxo-2H-chromen-3-yl)acetamide]: the “anti-proliferative effects MCF-7” value in experiment [1] is given as “no anti-proliferative effects”. For the same compound, the “concentration at which degradation of client proteins AR and AKT occurs” value in experiment [2] amounted to 1 µM. Also, the “lowest concentration inducing Hsp90” value in experiment [2] worked out at 10 nM. In experiment [3] (Aβ 10 μM, 48 hours), the “lowest concentration with minor neuroprotective effects” value is listed as 0.5 nM. Also, the “lowest concentration giving (significant) protection of neurons against Aβ” value in experiment [3] (Aβ 10 μM, compound added 2 hours before, viability at 48 hours) was 5 nM. Besides, the concentration for a half-maximal effect (EC50) in experiment [3] (Rattus norvegicus, Primary cortical neuron, read-out: EC50, prevention of Aβ-induced toxicity, Aβ 10 μM, compound added 2 hours before, viability at 48 hours) is approximately 6 nM; in experiment [3] (read-out: EC50, prevention of Aβ-induced toxicity, Aβ 10 μM, compound added 2 hours before, viability at 48 hours), 5 nM.
